Among the data in US20060088529A1, “Bispecific monoclonal antibodies to IL-12 and IL-18” (priority 2000, published 2006) are IFN-γ production values, retold here.

One experiment concerns NK-92 cells. The experiment is described as follows: IFN-γ production in NK-92 cells (ELISA). The experiment is classed as cell-based, human. The following applies: IL-12 10 pM, 16 to 24 hours. The procedure:
(§1) Two assays show the bioactivity of IL-12 and IL-18 alone. NK-92 is a natural killer line derived from a patient with malignant […] lymphoma. KG-1 is a myelomonocytic line derived from a patient with acute myelogenous leukemia. NK-92 and KG-1 cells constitutively express the IL-12 and IL-18 receptors, respectively.
(§2) KG-1 cells were cultured in serum-free medium for 24 hours, and then plated at 1×10^6 cells/ml in 96-well plates. As indicated, IL-18 (50 nM) or DEX (20 nM) were added. NK-92 cells were cultured in the presence of 10 U/ml IL-2, and plated at 2.5×10^4 viable (Trypan Blue negative) cells/ml in 96-well plates. As indicated, IL-12 (10 pM) or DEX (20 nM) were added. The KG-1 and NK-92 cells were incubated for 16 to 24 hours, and the amount of IFN-γ in the culture medium was determined using the Biosource Cytoscreen IFN-γ ELISA kit.
In general terms: An ELISA detects its analyte on a solid surface through an enzyme-linked reagent.

In the next experiment the test system is KG-1 cells. Briefly: IFN-γ production in KG-1 cells (ELISA). The following applies: IL-18 50 nM, 16 to 24 hours. In kind it is cell-based, human. The procedure: as §1, §2

Turning to Interleukin-12 [IL-12], the IFN-γ production entry in the experiment on NK-92 cells was “induce IFN-γ production”. Turning to Interleukin-18 [IL-18], the IFN-γ production entry in the experiment with KG-1 cells is given as “induce IFN-γ production”.
